Reference: ChEMBL document CHEMBL3044788, “α-(Substituted-phenoxyacetoxy)-α-heterocyclylmethylphosphonates: synthesis, herbicidal activity, inhibition on pyruvate dehydrogenase complex (PDHc), and application as postemergent herbicide against broadleaf weeds” (J Agric Food Chem, 2013)
Several values for one entry are separate records, joined by “and”; a condition that tells them apart may be missing. Equal entries are not always repeated.

Assays:
[1] = biological target: T1, Pyruvate dehydrogenase complex (Pisum sativum, UniProt P52902+P52904); assay: Inhibition of Pisum sativum (pea) PDHc by spectrophotometric assay; format: protein-complex assay, Lathyrus oleraceus
T1 sequence (P52902 whole entry): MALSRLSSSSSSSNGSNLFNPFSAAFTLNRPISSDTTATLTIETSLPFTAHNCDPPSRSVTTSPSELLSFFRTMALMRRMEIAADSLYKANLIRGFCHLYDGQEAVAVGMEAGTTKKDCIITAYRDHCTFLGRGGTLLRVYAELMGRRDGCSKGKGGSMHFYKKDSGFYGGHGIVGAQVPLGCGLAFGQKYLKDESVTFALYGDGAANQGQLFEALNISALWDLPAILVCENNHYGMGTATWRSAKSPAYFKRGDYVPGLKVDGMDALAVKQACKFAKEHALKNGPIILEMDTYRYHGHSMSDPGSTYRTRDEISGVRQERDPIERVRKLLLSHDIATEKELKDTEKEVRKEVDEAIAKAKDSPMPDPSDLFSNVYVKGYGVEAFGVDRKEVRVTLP
T1 sequence (P52904 whole entry): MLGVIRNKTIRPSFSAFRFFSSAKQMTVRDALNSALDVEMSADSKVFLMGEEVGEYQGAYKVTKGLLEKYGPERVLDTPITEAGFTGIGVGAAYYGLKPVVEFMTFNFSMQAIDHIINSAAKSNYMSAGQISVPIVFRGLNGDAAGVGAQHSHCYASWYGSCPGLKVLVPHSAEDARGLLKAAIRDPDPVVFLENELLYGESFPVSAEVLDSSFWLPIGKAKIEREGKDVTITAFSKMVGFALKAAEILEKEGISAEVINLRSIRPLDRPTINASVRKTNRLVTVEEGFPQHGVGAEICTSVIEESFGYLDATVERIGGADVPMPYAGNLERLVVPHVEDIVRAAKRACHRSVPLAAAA

[2] = tested on: Echinochloa crus-galli; assay: Herbicidal activity against 2 to 3 leaf stage Echinochloa crus-galli (barnyard grass) assessed as inhibition of plant growth at 450 g/ha in greenhouse by postemergence herbicidal activity assay; format: functional; conditions: for inhibition of growth at 450 g/ha: Echinochloa crus-galli, post-emergence, read-out: GI
[3] = tested on: Amaranthus retroflexus; assay: Herbicidal activity against 2 to 3 leaf stage Amaranthus retroflexus assessed as inhibition of plant growth at 450 g/ha in greenhouse by postemergence herbicidal activity assay; format: functional; conditions: post-emergence, read-out: GI
[4] = tested on: Oryza sativa; assay: Herbicidal activity against two to three-leaf stage Oryza sativa (rice) assessed as inhibition of plant growth at 450 g/ha in greenhouse by postemergence herbicidal activity assay; format: organism-based; conditions: in vivo, other
[5] = tested on: Pisum sativum; assay: Herbicidal activity against 2 to 3 leaf stage Pisum sativum assessed as inhibition of plant growth at 450 g/ha in greenhouse by postemergence herbicidal activity assay; format: functional; conditions: Lathyrus oleraceus, post-emergence; read-out: GI
[6] = tested on: Brassica juncea; assay: Herbicidal activity against two to three-leaf stage Brassica juncea assessed as inhibition of plant growth at 450 g/ha in greenhouse by post-emergence herbicidal activity assay; format: functional; conditions: read-out: GI
[7] = tested on: Brassica rapa subsp. oleifera; assay: Herbicidal activity against Brassica rapa subsp. oleifera assessed as inhibition of rape root growth; format: functional, organism-based
[8] = tested on: Brassica rapa subsp. oleifera; assay: Herbicidal activity against Brassica rapa subsp. oleifera assessed as inhibition of rape root growth at 450 g/ha by pre-emergence herbicidal activity assay; format: functional; conditions: read-out: GI
[9] = tested on: Brassica rapa subsp. oleifera; assay: Herbicidal activity against Brassica rapa subsp. oleifera assessed as inhibition of rape root growth at 450 g/ha by postemergence herbicidal activity assay; format: functional; conditions: post-emergence, read-out: GI
[10] = Inhibition of Oryza sativa (rice) PDHc by spectrophotometric assay
[11] = tested on: Eclipta prostrata; assay: Herbicidal activity against two to three-leaf stage Eclipta prostrata assessed as inhibition of plant growth at 450 g/ha in greenhouse by post-emergence herbicidal activity assay; format: functional; conditions: read-out: GI
[12] = tested on: Brassica rapa subsp. oleifera; assay: Herbicidal activity against two to three-leaf stage Brassica rapa subsp. oleifera assessed as inhibition of plant growth at 450 g/ha in greenhouse by postemergence herbicidal activity assay; format: functional; conditions: post-emergence, read-out: GI
[13] = tested on: Brassica rapa subsp. oleifera; assay: Herbicidal activity against two to three-leaf stage Brassica rapa subsp. oleifera assessed as inhibition of plant growth at 150 g/ha in greenhouse by postemergence herbicidal activity assay; format: functional; conditions: post-emergence, read-out: GI
[14] = tested on: Amaranthus retroflexus; assay: Herbicidal activity against 2 to 3 leaf stage Amaranthus retroflexus assessed as inhibition of plant growth at 150 g/ha in greenhouse by postemergence herbicidal activity assay; format: functional; conditions: post-emergence, read-out: GI
[15] = tested on: Eclipta prostrata; assay: Herbicidal activity against two to three-leaf stage Eclipta prostrata assessed as inhibition of plant growth at 150 g/ha in greenhouse by post-emergence herbicidal activity assay; format: functional; conditions: read-out: GI
[16] = tested on: Abutilon theophrasti; assay: Herbicidal activity against two to three-leaf stage Abutilon theophrasti (velvetleaf) assessed as inhibition of plant growth at 450 g/ha in greenhouse by post-emergence herbicidal activity assay; format: functional; conditions: read-out: GI
[17] = tested on: Abutilon theophrasti; assay: Herbicidal activity against two to three-leaf stage Abutilon theophrasti (velvetleaf) assessed as inhibition of plant growth at 150 g/ha in greenhouse by post-emergence herbicidal activity assay; format: functional; conditions: read-out: GI

| SMILES | IC50 [1] [µM] | inhibition of growth at 450 g/ha [2] [%] | inhibition of growth at 450 g/ha [3] [%] | growth inhibition (GI) [4] [%] | inhibition of growth at 450 g/ha [5] [%] | inhibition of growth at 450 g/ha [6] [%] | IC50 [7] [µM] | inhibition of growth at 450 g/ha [8] [%] | inhibition of growth at 450 g/ha [9] [%] | IC50 [10] [µM] | growth inhibition (GI) [2] | inhibition of growth at 450 g/ha [11] [%] | inhibition of growth at 450 g/ha [12] [%] | inhibition of growth at 150 g/ha [13] [%] | inhibition of growth at 150 g/ha [14] [%] | inhibition of growth at 150 g/ha [15] [%] | inhibition of growth at 450 g/ha [16] [%] | inhibition of growth at 150 g/ha [17] [%] |
| --- | --- | --- | --- | --- | --- | --- | --- | --- | --- | --- | --- | --- | --- | --- | --- | --- | --- | --- |
| COP(=O)(OC)C(OC(=O)COc1cccc(C(F)(F)F)c1)c1ccccn1 (centres undefined) | > 2300 | 0 | 77.5 | 0 | 0 | 60 | – | – | – | – | – | – | – | – | – | – | – | – |
| COP(=O)(O)C(=O)c1ccco1 | 389 | 25 | 25 | – | 35 | – | 3240 | 20 | 30 | – | – | – | – | – | – | – | – | – |
| COP(=O)(OC)C(C)OC(=O)COc1ccc(Cl)cc1Cl (centres undefined) [CLACYFOS] | – | – | 100 | 0 | 97.5 | 100 | 0.0344 | 96 | 98 | 867 | 35% and 100% | 0 | 100 | 92 | 91 | 90 | 100 | 95 |
| COP(=O)(O)C(C)=O [SODIUM METHYL ACETYLPHOSPHONATE] | 70 | – | – | – | – | – | – | – | – | – | – | – | – | – | – | – | – | – |
| COP(=O)([O-])C(C)OC(=O)COc1ccc(Cl)cc1Cl.[Na+] (centres undefined) | – | 50 | 98 | 27 | 71.5 | 100 | – | – | – | 0.29 | – | – | – | – | – | – | – | – |
| COP(=O)(OC)C(=O)c1ccco1 | – | – | – | – | – | – | 237 | 56 | 50 | – | – | – | – | – | – | – | – | – |
| CCCC(OC(=O)COc1ccc(Cl)cc1Cl)P(=O)([O-])OC.[Na+] (centres undefined) | – | 45 | 97 | 22 | 77.5 | 96 | – | – | – | 3.26 | – | – | – | – | – | – | – | – |
| COP(=O)([O-])COC(=O)COc1ccc(Cl)cc1Cl.[Na+] | – | 10 | 92 | 12 | 52.5 | 93 | – | – | – | 29.1 | – | – | – | – | – | – | – | – |
| COP(=O)(O)C(O)c1ccco1 (centres undefined) | > 4670 | 17.5 | 0 | – | 0 | – | > 4670 | 23 | 20 | – | – | – | – | – | – | – | – | – |
| CCC(OC(=O)COc1ccc(Cl)cc1Cl)P(=O)([O-])OC.[Na+] (centres undefined) | – | 30 | 97 | 27 | 90 | 94.5 | – | – | – | 18.9 | – | – | – | – | – | – | – | – |
| COP(=O)(OC)C(C)O (centres undefined) [DIMETHYL 1-HYDROXYETHYLPHOSPHONATE] | – | – | – | – | – | – | 2400 | 36 | 30 | – | – | – | – | – | – | – | – | – |
| COP(=O)([O-])C(OC(=O)COc1ccc(Cl)cc1Cl)c1ccco1.[Na+] (centres undefined) | 6.96 | 50 | 100 | 45 | 98 | 92.5 | 0.0396 | 96 | 95 | 41.1 | – | – | – | – | – | – | – | – |
| O=C(O)COc1ccc(Cl)cc1Cl [2,4-DICHLOROPHENOXYACETIC ACID] | > 4530 | 35 | 100 | – | 97.5 | 100 | 0.0556 | 98 | 90 | – | – | – | – | 92.5 | 92 | 90 | – | 93 |
